From US8404898B2, “Integrated process for the preparation of polybenzimidazole precursors” (E I du Pont de Nemours and Company, priority 2008, dated 2013) come the findings set out here.

This data set can be described thus: solubility of TAT salt in water. It is filed as physicochemical. Conditions: water at 25° C. The procedure: The reaction mixture containing the precipitated TAT salt is then cooled to about 5° C. to about 15° C. and stirred, then filtered. The TAT salt is then washed 44. […] Using an agitated filter unit during the wash procedures can allow for a reduction of the wash volumes. Under such circumstances, using small amounts of cold (e.g., about 5° C.) water instead of the aqueous acid would be effective; cold water would be used because of lower solubility of the TAT salt in cold water versus, e.g., room temperature. For example, the solubility of TAT.4HCl in water at 25° C. is about 16 wt %.

In the case of `Cc1c(N)c(N)cc(N)c1N` [TAT.4HCl, 2,3,5,6-tetraminotoluene], the solubility in water result is reported as “about 16 wt %”.
